Assay results published in the supplement of paper PMC7021759.
± gives the standard deviation of the averaged measurements.

Test system: SK-N-MM (SKNMM-MYCN, doxycycline-inducible MYCN)
Experiment: area under dose-response curve (CellTiter-Glo viability normalised to plate controls) (AUC (arbitrary units)); higher = more loss of viability; extreme values may be limits of the assay
Method in brief: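 SK-N-MM cells with doxycycline-inducible MYCN were plated at 1250 cells/100 μL in 96-well plates and given medium with or without doxycycline about 24 h later. Two days later, 10-point 1:3 compound dilution series were pin-transferred (890-fold stock dilution) and re-dosed on day 4. CellTiter-Glo luminescence was read 3 or 8 days after drugging. Log2 signals were normalised to plate positive and negative controls, and area under the dose-response curve was computed.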

[1] = MYCN induction (doxycycline): +doxycycline (MYCN induced), time after drugging: 3 days
[2] = MYCN induction (doxycycline): +doxycycline (MYCN induced), time after drugging: 8 days
[3] = MYCN induction (doxycycline): no doxycycline (MYCN not induced), time after drugging: 3 days
[4] = MYCN induction (doxycycline): no doxycycline (MYCN not induced), time after drugging: 8 days

Row | SMILES | area under dose-response curve [1] | area under dose-response curve [2] | area under dose-response curve [3] | area under dose-response curve [4]
1 | COc1cccc2c1C(=O)c1c(O)c3c(c(O)c1C2=O)C[C@@](O)(C(=O)CO)C[C@@H]3O[C@H]1C[C@H](N)[C@H](O)[C@H](C)O1 [DOXORUBICIN] | 135 | 295 | 104 | 224
2 | CCC1=C[C@@H]2CN(C1)Cc1c([nH]c3ccccc13)[C@@](C(=O)OC)(c1cc3c(cc1OC)N(C)[C@H]1[C@@](O)(C(=O)OC)[C@H](OC(C)=O)[C@]4(CC)C=CCN5CC[C@]31[C@@H]54)C2 [VINORELBINE] | 207 | 296 | 99.3 | 144
3 | Nc1nc(Cl)nc2c1ncn2[C@H]1C[C@H](O)[C@@H](CO)O1 [CLADRIBINE] | 51.7 | 225 | 35.7 | 110
4 | CS(=O)(=O)c1ccc(C(=O)Nc2ccc(Cl)c(-c3ccccn3)c2)c(Cl)c1 [VISMODEGIB] | 0 | 0 | 0 | 0
5 | NC1(c2ccc(-c3nc4ccn5c(=O)[nH]nc5c4cc3-c3ccccc3)cc2)CCC1 [MK-2206] |  | 0 | 81.6 | 149
6 | CC[C@]1(O)C[C@H]2CN(CCc3c([nH]c4ccccc34)[C@@](C(=O)OC)(c3cc4c(cc3OC)N(C=O)[C@H]3[C@@](O)(C(=O)OC)[C@H](OC(C)=O)[C@]5(CC)C=CCN6CC[C@]43[C@@H]65)C2)C1 [VINCRISTINE] | 185 | 253 | 89.2 | 146
7 | CCc1ccc(CCOc2ccc(CC3SC(=O)NC3=O)cc2)nc1 (stereo not drawn) [PIOGLITAZONE] | 0 | 0 | 0 | 0
8 | CC(C)C[C@H](NC(=O)[C@H](Cc1ccccc1)NC(=O)c1cnccn1)B(O)O [BORTEZOMIB] | 264 | 382 | 245 | 374
9 | CNC(=O)c1cc(Oc2ccc(NC(=O)Nc3ccc(Cl)c(C(F)(F)F)c3)cc2)ccn1 [SORAFENIB] | 0 | 0 | 0 | 0
10 | Cc1nc(Nc2ncc(C(=O)Nc3c(C)cccc3Cl)s2)cc(N2CCN(CCO)CC2)n1 [DASATINIB] | 39.9 | 121 | 40 | 51.4
11 | COc1cc(Nc2ncc3c(n2)-c2ccc(Cl)cc2C(c2c(F)cccc2OC)=NC3)ccc1C(=O)O [ALISERTIB] | 51.1 ± 1.1 | 126 ± 21 | 15.2 ± 0.59 | 69.4 ± 30
12 | OC[C@H]1O[C@@H](n2cnc3c2N=CNC[C@H]3O)C[C@@H]1O [PENTOSTATIN] | 0 | 0 | 0 | 
13 | CN(N=O)C(=O)N[C@H]1C(O)O[C@H](CO)[C@@H](O)[C@@H]1O (mixture of isomers) [STREPTOZOSIN] | 0 | 0 | 0 | 
14 | COC(=O)N[C@@H](C)CNc1nccc(-c2cn(C(C)C)nc2-c2cc(Cl)cc(NS(C)(=O)=O)c2F)n1 [LGX-818] | 12.9 | 2.41 | 11 | 68.6
